Reference: patent publication US7759331B2, “Pyridine-containing macroheterococylic compounds as kinase inhibitors” (Janssen Pharmaceutica NV, priority 2006, dated 2010)

How the values were obtained:
Assay in all cases: Protein kinase selectivity panel
Settings in all cases: 1.0 μM compound, 10 μM ATP
CK1(y) = format: biochemical, yeast
Protocol: (§1) Protein kinase selectivity assays were performed as described in the scientific literature (Davies, S. P., et al., Biochem. J. 2000, 351, 95-105). Briefly, protein kinases were assayed for their ability to phosphorylate the appropriate peptide/protein substrates in the presence of 1.0 μM compound. Assays were done using 10 μM ATP and were linear with respect to time. The protein kinase selectivity assays were performed by Upstate Cell Signaling Solutions using Upstate's KinaseProfiler™ Selectivity Screening Service.

PKA(b) = PKA(b) (Bos taurus, UniProt P00517); format: biochemical, bovine
Protocol: as §1

Abl(T315l)(h) = Abl(T315l)(h) (Homo sapiens, UniProt P00519, T315I); format: biochemical
Protocol: as §1

Abl(m) = Abl(m) (Mus musculus, UniProt P00520); format: biochemical
Protocol: as §1

Blk(m) = Blk(m) (Mus musculus, UniProt P16277); format: biochemical
Protocol: as §1

CDK2/cyclinA(h) = CDK2/cyclinA(h) (Homo sapiens, UniProt P24941); format: biochemical
Protocol: as §1

EGFR(h) = EGFR(h) (Homo sapiens, UniProt P00533); format: biochemical
Protocol: as §1

Fes(h) = Fes(h) (Homo sapiens, UniProt P07332); format: biochemical
Protocol: as §1

IKKα(h) = biological target: T1, IKKα(h) (Homo sapiens, UniProt O15111); format: biochemical
T1 sequence (O15111 1-745): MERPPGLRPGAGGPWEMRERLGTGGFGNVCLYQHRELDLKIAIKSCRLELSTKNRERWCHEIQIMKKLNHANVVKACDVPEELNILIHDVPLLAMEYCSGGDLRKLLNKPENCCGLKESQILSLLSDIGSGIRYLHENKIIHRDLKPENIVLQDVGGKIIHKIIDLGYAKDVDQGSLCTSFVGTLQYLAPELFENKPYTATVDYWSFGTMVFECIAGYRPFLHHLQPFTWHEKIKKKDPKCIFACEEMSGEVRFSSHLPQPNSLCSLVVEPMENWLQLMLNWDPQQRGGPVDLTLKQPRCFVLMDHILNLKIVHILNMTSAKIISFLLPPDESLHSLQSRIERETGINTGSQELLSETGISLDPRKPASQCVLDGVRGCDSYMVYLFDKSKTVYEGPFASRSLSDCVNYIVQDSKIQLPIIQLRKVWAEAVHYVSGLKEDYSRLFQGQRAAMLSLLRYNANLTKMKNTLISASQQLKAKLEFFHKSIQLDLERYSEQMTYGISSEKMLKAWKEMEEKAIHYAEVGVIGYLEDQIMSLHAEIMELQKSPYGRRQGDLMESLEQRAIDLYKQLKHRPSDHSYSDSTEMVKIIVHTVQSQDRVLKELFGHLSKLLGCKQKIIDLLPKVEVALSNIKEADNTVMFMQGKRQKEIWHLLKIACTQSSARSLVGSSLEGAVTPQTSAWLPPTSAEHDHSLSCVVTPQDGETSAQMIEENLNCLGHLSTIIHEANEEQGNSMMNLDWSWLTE
Protocol: as §1

JNK2α2(h) = JNK2α2(h) (Homo sapiens, UniProt P45984); format: biochemical
Protocol: as §1

Lyn(m) = Lyn(m) (Mus musculus, UniProt P25911); format: biochemical
Protocol: as §1

MAPK2(h) = MAPK2(h) (Homo sapiens, UniProt P28482); format: biochemical
Protocol: as §1

MEK1(h) = MEK1(h) (Homo sapiens, UniProt Q02750); format: biochemical
Protocol: as §1

PDGFRα(h) = PDGFRα(h) (Homo sapiens, UniProt P16234); format: biochemical
Protocol: as §1

PKCγ(h) = PKCγ(h) (Homo sapiens, UniProt P05129); format: biochemical
Protocol: as §1

PKCμ(h) = biological target: T2, PKCμ(h) (Homo sapiens, UniProt Q15139); format: biochemical
T2 sequence (Q15139 1-912): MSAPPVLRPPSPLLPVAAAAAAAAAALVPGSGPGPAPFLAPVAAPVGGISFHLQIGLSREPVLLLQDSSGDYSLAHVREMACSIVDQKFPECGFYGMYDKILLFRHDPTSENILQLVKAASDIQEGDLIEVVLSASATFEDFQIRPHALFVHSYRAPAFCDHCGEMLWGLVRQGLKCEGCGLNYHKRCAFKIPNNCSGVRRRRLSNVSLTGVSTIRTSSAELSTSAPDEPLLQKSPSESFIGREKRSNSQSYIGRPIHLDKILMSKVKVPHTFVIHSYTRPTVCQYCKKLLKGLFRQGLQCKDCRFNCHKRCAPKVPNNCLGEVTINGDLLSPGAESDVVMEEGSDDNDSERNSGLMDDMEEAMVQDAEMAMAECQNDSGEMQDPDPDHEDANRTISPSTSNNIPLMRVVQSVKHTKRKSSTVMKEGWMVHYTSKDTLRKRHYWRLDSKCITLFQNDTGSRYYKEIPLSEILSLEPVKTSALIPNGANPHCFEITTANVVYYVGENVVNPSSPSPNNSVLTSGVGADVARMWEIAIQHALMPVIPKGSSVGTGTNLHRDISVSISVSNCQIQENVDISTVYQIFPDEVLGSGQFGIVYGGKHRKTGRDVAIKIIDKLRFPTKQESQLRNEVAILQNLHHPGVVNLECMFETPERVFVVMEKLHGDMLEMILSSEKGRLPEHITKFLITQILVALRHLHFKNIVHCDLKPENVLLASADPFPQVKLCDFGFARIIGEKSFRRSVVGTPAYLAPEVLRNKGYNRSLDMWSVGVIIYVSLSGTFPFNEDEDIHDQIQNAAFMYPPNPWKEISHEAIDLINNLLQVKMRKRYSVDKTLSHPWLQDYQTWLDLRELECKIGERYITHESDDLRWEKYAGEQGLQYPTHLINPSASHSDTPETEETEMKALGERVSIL
Protocol: as §1

Rsk2(h) = Rsk2(h) (Homo sapiens, UniProt P51812); format: biochemical
Protocol: as §1

SAPK2a(h) = SAPK2a(h) (Homo sapiens, UniProt Q16539); format: biochemical
Protocol: as §1

Chain of Lyn(m) (P25911 whole entry): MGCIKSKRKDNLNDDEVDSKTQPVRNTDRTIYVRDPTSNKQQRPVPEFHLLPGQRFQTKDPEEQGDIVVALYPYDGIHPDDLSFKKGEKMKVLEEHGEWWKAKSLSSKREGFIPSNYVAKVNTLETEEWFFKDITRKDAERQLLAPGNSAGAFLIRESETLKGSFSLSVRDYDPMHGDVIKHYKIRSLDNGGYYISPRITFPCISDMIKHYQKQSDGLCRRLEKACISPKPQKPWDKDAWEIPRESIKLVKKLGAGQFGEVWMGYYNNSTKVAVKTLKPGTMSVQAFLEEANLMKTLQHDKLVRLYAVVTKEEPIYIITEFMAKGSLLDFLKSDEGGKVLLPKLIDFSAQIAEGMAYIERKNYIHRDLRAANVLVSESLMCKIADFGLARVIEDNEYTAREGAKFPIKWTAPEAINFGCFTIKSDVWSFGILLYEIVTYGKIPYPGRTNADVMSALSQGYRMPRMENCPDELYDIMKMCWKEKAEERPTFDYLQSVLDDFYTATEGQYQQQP
Chain of SAPK2a(h) (Q16539 whole entry): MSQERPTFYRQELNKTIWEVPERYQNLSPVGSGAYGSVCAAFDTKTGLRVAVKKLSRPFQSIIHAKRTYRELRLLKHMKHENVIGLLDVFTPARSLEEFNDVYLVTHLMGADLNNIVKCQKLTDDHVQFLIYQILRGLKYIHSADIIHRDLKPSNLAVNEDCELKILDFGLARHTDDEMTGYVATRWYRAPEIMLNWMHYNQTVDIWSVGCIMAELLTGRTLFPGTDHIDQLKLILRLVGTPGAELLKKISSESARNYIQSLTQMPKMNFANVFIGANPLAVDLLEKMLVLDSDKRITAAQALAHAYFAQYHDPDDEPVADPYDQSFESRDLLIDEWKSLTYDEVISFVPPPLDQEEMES
Chain of Rsk2(h) (P51812 whole entry): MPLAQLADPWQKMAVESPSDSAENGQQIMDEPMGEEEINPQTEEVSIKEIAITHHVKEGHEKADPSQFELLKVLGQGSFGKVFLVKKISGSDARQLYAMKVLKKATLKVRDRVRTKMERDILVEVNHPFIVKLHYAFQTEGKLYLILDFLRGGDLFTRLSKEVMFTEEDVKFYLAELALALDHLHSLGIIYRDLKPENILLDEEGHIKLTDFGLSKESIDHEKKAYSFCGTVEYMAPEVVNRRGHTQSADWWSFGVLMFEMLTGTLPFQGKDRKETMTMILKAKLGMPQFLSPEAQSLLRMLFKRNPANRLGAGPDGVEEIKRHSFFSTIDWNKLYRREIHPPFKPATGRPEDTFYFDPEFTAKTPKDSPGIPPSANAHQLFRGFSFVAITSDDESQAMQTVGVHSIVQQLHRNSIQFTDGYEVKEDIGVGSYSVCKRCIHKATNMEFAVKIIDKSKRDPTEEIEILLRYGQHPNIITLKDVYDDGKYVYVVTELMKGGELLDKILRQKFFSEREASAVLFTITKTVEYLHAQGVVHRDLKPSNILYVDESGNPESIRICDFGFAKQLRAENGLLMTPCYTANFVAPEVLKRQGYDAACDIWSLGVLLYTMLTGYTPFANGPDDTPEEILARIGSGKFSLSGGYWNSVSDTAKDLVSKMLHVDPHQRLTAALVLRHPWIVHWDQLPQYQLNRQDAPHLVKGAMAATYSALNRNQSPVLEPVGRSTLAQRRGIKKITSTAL
Chain of PDGFRα(h) (P16234 24-1089): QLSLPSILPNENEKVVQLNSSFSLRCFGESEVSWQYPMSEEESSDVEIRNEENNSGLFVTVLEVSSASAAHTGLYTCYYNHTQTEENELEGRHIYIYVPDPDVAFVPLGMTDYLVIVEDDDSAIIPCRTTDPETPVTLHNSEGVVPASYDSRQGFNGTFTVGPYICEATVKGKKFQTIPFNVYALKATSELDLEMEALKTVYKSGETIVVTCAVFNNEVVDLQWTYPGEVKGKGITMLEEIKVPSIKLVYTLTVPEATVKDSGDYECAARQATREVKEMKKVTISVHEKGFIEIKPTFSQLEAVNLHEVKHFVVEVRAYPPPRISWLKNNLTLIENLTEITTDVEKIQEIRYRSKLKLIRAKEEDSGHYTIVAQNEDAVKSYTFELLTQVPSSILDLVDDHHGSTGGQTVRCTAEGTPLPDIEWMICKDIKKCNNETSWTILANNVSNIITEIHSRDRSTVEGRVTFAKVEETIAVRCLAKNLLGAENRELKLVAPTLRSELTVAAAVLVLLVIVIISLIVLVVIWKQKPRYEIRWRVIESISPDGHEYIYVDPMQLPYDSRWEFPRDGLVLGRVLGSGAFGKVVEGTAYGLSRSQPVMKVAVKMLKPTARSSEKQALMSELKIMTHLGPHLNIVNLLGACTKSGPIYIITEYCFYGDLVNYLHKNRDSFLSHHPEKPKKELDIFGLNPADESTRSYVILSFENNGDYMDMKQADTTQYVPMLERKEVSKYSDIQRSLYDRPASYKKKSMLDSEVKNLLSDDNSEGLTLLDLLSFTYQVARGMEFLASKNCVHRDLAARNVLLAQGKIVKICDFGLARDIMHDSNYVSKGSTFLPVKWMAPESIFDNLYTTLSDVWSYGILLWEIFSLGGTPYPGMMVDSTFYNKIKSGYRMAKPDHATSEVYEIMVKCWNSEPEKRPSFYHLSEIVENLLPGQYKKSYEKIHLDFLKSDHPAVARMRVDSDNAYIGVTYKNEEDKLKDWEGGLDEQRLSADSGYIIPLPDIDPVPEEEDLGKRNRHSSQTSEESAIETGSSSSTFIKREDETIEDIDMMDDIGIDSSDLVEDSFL
Chain of MAPK2(h) (P28482 whole entry): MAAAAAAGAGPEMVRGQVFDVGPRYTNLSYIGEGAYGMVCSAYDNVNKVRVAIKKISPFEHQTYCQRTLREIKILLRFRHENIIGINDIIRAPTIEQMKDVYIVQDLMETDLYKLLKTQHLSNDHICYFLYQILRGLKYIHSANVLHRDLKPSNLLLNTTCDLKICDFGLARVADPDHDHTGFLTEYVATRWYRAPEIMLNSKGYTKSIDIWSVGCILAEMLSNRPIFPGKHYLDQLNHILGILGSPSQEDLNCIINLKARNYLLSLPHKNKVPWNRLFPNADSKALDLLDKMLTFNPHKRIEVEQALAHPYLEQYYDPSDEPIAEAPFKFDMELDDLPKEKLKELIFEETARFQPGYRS
Chain of MEK1(h) (Q02750 whole entry): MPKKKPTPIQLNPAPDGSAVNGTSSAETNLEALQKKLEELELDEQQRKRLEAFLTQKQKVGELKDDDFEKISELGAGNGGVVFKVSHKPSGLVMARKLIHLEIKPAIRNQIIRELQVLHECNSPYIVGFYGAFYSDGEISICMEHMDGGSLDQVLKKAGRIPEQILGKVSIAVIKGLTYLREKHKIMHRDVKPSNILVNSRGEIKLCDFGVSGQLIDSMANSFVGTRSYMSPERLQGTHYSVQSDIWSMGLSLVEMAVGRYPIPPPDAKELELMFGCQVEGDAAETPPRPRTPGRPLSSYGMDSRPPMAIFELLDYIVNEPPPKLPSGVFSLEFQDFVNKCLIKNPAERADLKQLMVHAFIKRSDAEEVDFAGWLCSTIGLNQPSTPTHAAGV
Chain of JNK2α2(h) (P45984 whole entry): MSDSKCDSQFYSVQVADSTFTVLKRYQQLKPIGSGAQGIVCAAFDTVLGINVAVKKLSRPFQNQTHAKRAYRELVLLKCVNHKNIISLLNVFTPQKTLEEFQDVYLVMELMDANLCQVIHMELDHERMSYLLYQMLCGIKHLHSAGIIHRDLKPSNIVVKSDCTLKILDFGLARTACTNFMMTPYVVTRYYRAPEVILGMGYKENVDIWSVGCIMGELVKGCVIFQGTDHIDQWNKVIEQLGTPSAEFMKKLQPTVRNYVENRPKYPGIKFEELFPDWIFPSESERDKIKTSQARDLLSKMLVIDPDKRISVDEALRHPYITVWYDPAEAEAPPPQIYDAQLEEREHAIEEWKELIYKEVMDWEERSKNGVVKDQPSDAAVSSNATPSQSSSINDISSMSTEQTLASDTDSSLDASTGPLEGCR
Chain of Abl(m) (P00520 whole entry): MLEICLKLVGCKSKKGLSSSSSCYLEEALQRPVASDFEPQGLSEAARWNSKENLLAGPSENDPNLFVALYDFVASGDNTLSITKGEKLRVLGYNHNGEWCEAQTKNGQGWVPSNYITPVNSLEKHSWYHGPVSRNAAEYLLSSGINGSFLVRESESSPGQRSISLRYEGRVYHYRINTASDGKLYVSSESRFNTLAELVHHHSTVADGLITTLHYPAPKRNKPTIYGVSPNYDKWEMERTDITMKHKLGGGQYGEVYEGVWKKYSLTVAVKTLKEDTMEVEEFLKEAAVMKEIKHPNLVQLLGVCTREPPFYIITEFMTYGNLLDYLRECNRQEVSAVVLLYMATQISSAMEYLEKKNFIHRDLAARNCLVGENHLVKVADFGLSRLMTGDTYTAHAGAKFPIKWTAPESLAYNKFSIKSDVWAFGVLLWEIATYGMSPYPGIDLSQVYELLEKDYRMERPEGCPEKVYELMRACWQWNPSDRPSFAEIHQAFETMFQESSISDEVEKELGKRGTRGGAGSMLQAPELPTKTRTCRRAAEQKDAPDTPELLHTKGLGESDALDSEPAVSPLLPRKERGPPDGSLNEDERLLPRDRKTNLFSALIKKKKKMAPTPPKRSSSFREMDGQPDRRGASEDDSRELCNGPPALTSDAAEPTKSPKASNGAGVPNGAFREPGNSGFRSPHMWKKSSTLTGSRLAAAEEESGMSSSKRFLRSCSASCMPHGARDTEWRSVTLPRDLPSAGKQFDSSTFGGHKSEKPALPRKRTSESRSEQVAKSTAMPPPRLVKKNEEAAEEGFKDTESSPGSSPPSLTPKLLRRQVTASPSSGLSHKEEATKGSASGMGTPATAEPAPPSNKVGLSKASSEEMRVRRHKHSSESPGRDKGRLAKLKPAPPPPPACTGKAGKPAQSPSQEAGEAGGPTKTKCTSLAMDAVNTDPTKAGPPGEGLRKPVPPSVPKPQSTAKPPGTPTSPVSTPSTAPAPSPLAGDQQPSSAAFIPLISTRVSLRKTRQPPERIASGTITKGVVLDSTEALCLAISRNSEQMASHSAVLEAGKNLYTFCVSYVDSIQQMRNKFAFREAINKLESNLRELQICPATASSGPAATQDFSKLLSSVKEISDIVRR

Q: For `CN(C)c1cc2cc(n1)CCCn1cc(c3ccccc31)C1=C(C(=O)NC1=O)c1cn(c3ccccc13)CCC2` [Cpd 2, 20-(dimethylamino)-4,14,19,26-tetraazaheptacyclo[24.6.1.1^7,14.1^18,22.0^2,6.0^8,13.0^27,32]pentatriaconta-1(33),2(6),7(35),8,10,12,18(34),19,21,27,29,31-dodecaene-3,5-dione], which “Activity at Protein Kinase Assays (% of control), CK1(y)” value (CK1(y)) is on record?
A: Its value is 98 % of control.

Q: What about the “Activity at Protein Kinase Assays (% of control), PKA(b)” value (PKA(b)) of the same molecule?
A: The value was 107 % of control.

Q: And the “Activity at Protein Kinase Assays (% of control), Abl(T315l)(h)” value (Abl(T315l)(h))?
A: The value was 79 % of control.

Q: What about the “Activity at Protein Kinase Assays (% of control), Abl(m)” value (Abl(m)) of the same molecule?
A: Its value is 108 % of control.

Q: What about the “Activity at Protein Kinase Assays (% of control), Blk(m)” value (Blk(m)) of the same molecule?
A: Its value is 70 % of control.

Q: What about the “Activity at Protein Kinase Assays (% of control), CDK2/cyclinA(h)” value (CDK2/cyclinA(h)) of the same molecule?
A: The value was 80 % of control.

Q: What about the “Activity at Protein Kinase Assays (% of control), EGFR(h)” value (EGFR(h)) of the same molecule?
A: Its value is 96 % of control.

Q: What about the “Activity at Protein Kinase Assays (% of control), Fes(h)” value (Fes(h)) of the same molecule?
A: Its value is 133 % of control.

Q: And the “Activity at Protein Kinase Assays (% of control), IKKα(h)” value (IKKα(h))?
A: Its value is 133 % of control.

Q: And the “Activity at Protein Kinase Assays (% of control), JNK2α2(h)” value (JNK2α2(h))?
A: Its value is 106 % of control.

Q: And the “Activity at Protein Kinase Assays (% of control), Lyn(m)” value (Lyn(m))?
A: Its value is 102 % of control.

Q: And the “Activity at Protein Kinase Assays (% of control), MAPK2(h)” value (MAPK2(h))?
A: The value was 104 % of control.

Q: And the “Activity at Protein Kinase Assays (% of control), MEK1(h)” value (MEK1(h))?
A: The value was 93 % of control.

Q: And the “Activity at Protein Kinase Assays (% of control), PDGFRα(h)” value (PDGFRα(h))?
A: The value was 119 % of control.

Q: What about the “Activity at Protein Kinase Assays (% of control), PKCγ(h)” value (PKCγ(h)) of the same molecule?
A: Its value is 107 % of control.

Q: And the “Activity at Protein Kinase Assays (% of control), PKCμ(h)” value (PKCμ(h))?
A: Its value is 118 % of control.

Q: What about the “Activity at Protein Kinase Assays (% of control), Rsk2(h)” value (Rsk2(h)) of the same molecule?
A: The value was 10 % of control.

Q: What about the “Activity at Protein Kinase Assays (% of control), SAPK2a(h)” value (SAPK2a(h)) of the same molecule?
A: Its value is 92 % of control.
